Measured values: the OligoGym collection
Oligonucleotides are given in HELM: sugar(base)linkage, 5' to 3'; d 2'-deoxyribose, r ribose, m 2'-O-methylribose, p phosphate. ss, as = sense and antisense strand

molecular target: Mmp7 (rat); test: reporter assay of Huesken 2005; conditions: siRNA
Further: test concentration or dose not given here.

Substance	normalised inhibition (eCFP-eYFP dual reporter) [%]
RNA1{r(G)p.r(C)p.r(A)p.r(G)p.r(U)p.r(G)p.r(G)p.r(A)p.r(C)p.r(A)p.r(A)p.r(A)p.r(C)p.r(U)p.r(G)p.r(A)p.r(G)p.r(G)p.r(G)p.d(T)p.d(T)}|RNA2{r(C)p.r(C)p.r(C)p.r(U)p.r(C)p.r(A)p.r(G)p.r(U)p.r(U)p.r(U)p.r(G)p.r(U)p.r(C)p.r(C)p.r(A)p.r(C)p.r(U)p.r(G)p.r(C)p.d(A)p.d(C)}$$$RNA1{StrandType:ss}|RNA2{StrandType:as}$	32.3
RNA1{r(A)p.r(G)p.r(U)p.r(A)p.r(C)p.r(U)p.r(G)p.r(G)p.r(A)p.r(C)p.r(G)p.r(G)p.r(A)p.r(U)p.r(G)p.r(G)p.r(U)p.r(G)p.r(A)p.d(T)p.d(T)}|RNA2{r(U)p.r(C)p.r(A)p.r(C)p.r(C)p.r(A)p.r(U)p.r(C)p.r(C)p.r(G)p.r(U)p.r(C)p.r(C)p.r(A)p.r(G)p.r(U)p.r(A)p.r(C)p.r(U)p.d(C)p.d(A)}$$$RNA1{StrandType:ss}|RNA2{StrandType:as}$	90.5
RNA1{r(U)p.r(C)p.r(A)p.r(C)p.r(G)p.r(A)p.r(C)p.r(U)p.r(C)p.r(U)p.r(A)p.r(A)p.r(A)p.r(A)p.r(C)p.r(A)p.r(A)p.r(A)p.r(G)p.d(T)p.d(T)}|RNA2{r(C)p.r(U)p.r(U)p.r(U)p.r(G)p.r(U)p.r(U)p.r(U)p.r(U)p.r(A)p.r(G)p.r(A)p.r(G)p.r(U)p.r(C)p.r(G)p.r(U)p.r(G)p.r(A)p.d(A)p.d(G)}$$$RNA1{StrandType:ss}|RNA2{StrandType:as}$	108
RNA1{r(U)p.r(A)p.r(C)p.r(C)p.r(U)p.r(U)p.r(C)p.r(A)p.r(C)p.r(G)p.r(A)p.r(C)p.r(U)p.r(C)p.r(U)p.r(A)p.r(A)p.r(A)p.r(A)p.d(T)p.d(T)}|RNA2{r(U)p.r(U)p.r(U)p.r(U)p.r(A)p.r(G)p.r(A)p.r(G)p.r(U)p.r(C)p.r(G)p.r(U)p.r(G)p.r(A)p.r(A)p.r(G)p.r(G)p.r(U)p.r(A)p.d(A)p.d(A)}$$$RNA1{StrandType:ss}|RNA2{StrandType:as}$	110
RNA1{r(C)p.r(C)p.r(U)p.r(C)p.r(G)p.r(G)p.r(C)p.r(G)p.r(G)p.r(A)p.r(G)p.r(A)p.r(U)p.r(G)p.r(C)p.r(U)p.r(C)p.r(A)p.r(C)p.d(T)p.d(T)}|RNA2{r(G)p.r(U)p.r(G)p.r(A)p.r(G)p.r(C)p.r(A)p.r(U)p.r(C)p.r(U)p.r(C)p.r(C)p.r(G)p.r(C)p.r(C)p.r(G)p.r(A)p.r(G)p.r(G)p.d(C)p.d(C)}$$$RNA1{StrandType:ss}|RNA2{StrandType:as}$	72.1
RNA1{r(C)p.r(U)p.r(G)p.r(G)p.r(G)p.r(U)p.r(C)p.r(U)p.r(G)p.r(G)p.r(G)p.r(U)p.r(C)p.r(A)p.r(C)p.r(U)p.r(C)p.r(U)p.r(U)p.d(T)p.d(T)}|RNA2{r(A)p.r(A)p.r(G)p.r(A)p.r(G)p.r(U)p.r(G)p.r(A)p.r(C)p.r(C)p.r(C)p.r(A)p.r(G)p.r(A)p.r(C)p.r(C)p.r(C)p.r(A)p.r(G)p.d(A)p.d(G)}$$$RNA1{StrandType:ss}|RNA2{StrandType:as}$	87.6
RNA1{r(A)p.r(A)p.r(A)p.r(U)p.r(U)p.r(U)p.r(U)p.r(A)p.r(C)p.r(C)p.r(U)p.r(U)p.r(C)p.r(A)p.r(C)p.r(G)p.r(A)p.r(C)p.r(U)p.d(T)p.d(T)}|RNA2{r(A)p.r(G)p.r(U)p.r(C)p.r(G)p.r(U)p.r(G)p.r(A)p.r(A)p.r(G)p.r(G)p.r(U)p.r(A)p.r(A)p.r(A)p.r(A)p.r(U)p.r(U)p.r(U)p.d(C)p.d(C)}$$$RNA1{StrandType:ss}|RNA2{StrandType:as}$	74.4
RNA1{r(G)p.r(A)p.r(U)p.r(G)p.r(U)p.r(U)p.r(G)p.r(C)p.r(A)p.r(G)p.r(A)p.r(A)p.r(U)p.r(U)p.r(C)p.r(U)p.r(C)p.r(A)p.r(C)p.d(T)p.d(T)}|RNA2{r(G)p.r(U)p.r(G)p.r(A)p.r(G)p.r(A)p.r(A)p.r(U)p.r(U)p.r(C)p.r(U)p.r(G)p.r(C)p.r(A)p.r(A)p.r(C)p.r(A)p.r(U)p.r(C)p.d(T)p.d(G)}$$$RNA1{StrandType:ss}|RNA2{StrandType:as}$	119
RNA1{r(A)p.r(U)p.r(G)p.r(G)p.r(U)p.r(G)p.r(A)p.r(G)p.r(G)p.r(A)p.r(C)p.r(U)p.r(C)p.r(A)p.r(G)p.r(G)p.r(C)p.r(G)p.r(U)p.d(T)p.d(T)}|RNA2{r(A)p.r(C)p.r(G)p.r(C)p.r(C)p.r(U)p.r(G)p.r(A)p.r(G)p.r(U)p.r(C)p.r(C)p.r(U)p.r(C)p.r(A)p.r(C)p.r(C)p.r(A)p.r(U)p.d(C)p.d(C)}$$$RNA1{StrandType:ss}|RNA2{StrandType:as}$	65.7
RNA1{r(G)p.r(G)p.r(A)p.r(C)p.r(A)p.r(A)p.r(A)p.r(C)p.r(U)p.r(G)p.r(A)p.r(G)p.r(G)p.r(G)p.r(A)p.r(A)p.r(A)p.r(U)p.r(G)p.d(T)p.d(T)}|RNA2{r(C)p.r(A)p.r(U)p.r(U)p.r(U)p.r(C)p.r(C)p.r(C)p.r(U)p.r(C)p.r(A)p.r(G)p.r(U)p.r(U)p.r(U)p.r(G)p.r(U)p.r(C)p.r(C)p.d(A)p.d(C)}$$$RNA1{StrandType:ss}|RNA2{StrandType:as}$	83
RNA1{r(A)p.r(A)p.r(A)p.r(A)p.r(C)p.r(A)p.r(A)p.r(A)p.r(G)p.r(A)p.r(A)p.r(G)p.r(G)p.r(C)p.r(C)p.r(A)p.r(C)p.r(C)p.r(A)p.d(T)p.d(T)}|RNA2{r(U)p.r(G)p.r(G)p.r(U)p.r(G)p.r(G)p.r(C)p.r(C)p.r(U)p.r(U)p.r(C)p.r(U)p.r(U)p.r(U)p.r(G)p.r(U)p.r(U)p.r(U)p.r(U)p.d(A)p.d(G)}$$$RNA1{StrandType:ss}|RNA2{StrandType:as}$	45.7
RNA1{r(A)p.r(C)p.r(U)p.r(C)p.r(U)p.r(C)p.r(U)p.r(G)p.r(G)p.r(G)p.r(U)p.r(C)p.r(U)p.r(G)p.r(G)p.r(G)p.r(U)p.r(C)p.r(A)p.d(T)p.d(T)}|RNA2{r(U)p.r(G)p.r(A)p.r(C)p.r(C)p.r(C)p.r(A)p.r(G)p.r(A)p.r(C)p.r(C)p.r(C)p.r(A)p.r(G)p.r(A)p.r(G)p.r(A)p.r(G)p.r(U)p.d(G)p.d(G)}$$$RNA1{StrandType:ss}|RNA2{StrandType:as}$	61.8
RNA1{r(G)p.r(G)p.r(A)p.r(G)p.r(U)p.r(A)p.r(U)p.r(G)p.r(C)p.r(A)p.r(A)p.r(A)p.r(U)p.r(C)p.r(C)p.r(C)p.r(A)p.r(C)p.r(U)p.d(T)p.d(T)}|RNA2{r(A)p.r(G)p.r(U)p.r(G)p.r(G)p.r(G)p.r(A)p.r(U)p.r(U)p.r(U)p.r(G)p.r(C)p.r(A)p.r(U)p.r(A)p.r(C)p.r(U)p.r(C)p.r(C)p.d(A)p.d(C)}$$$RNA1{StrandType:ss}|RNA2{StrandType:as}$	96.7
RNA1{r(A)p.r(G)p.r(U)p.r(C)p.r(U)p.r(U)p.r(A)p.r(C)p.r(A)p.r(A)p.r(A)p.r(G)p.r(G)p.r(A)p.r(C)p.r(G)p.r(A)p.r(C)p.r(A)p.d(T)p.d(T)}|RNA2{r(U)p.r(G)p.r(U)p.r(C)p.r(G)p.r(U)p.r(C)p.r(C)p.r(U)p.r(U)p.r(U)p.r(G)p.r(U)p.r(A)p.r(A)p.r(G)p.r(A)p.r(C)p.r(U)p.d(G)p.d(A)}$$$RNA1{StrandType:ss}|RNA2{StrandType:as}$	98.7
